Data as given in patent US7892549B2, “Treatment with anti-ErbB2 antibodies” (Genentech, Inc., priority 1997, dated 2011).

System: metastatic breast cancer with overexpression of the ErbB2 (HER2) oncogene
Assay: Randomized clinical study of chemotherapy with or without HERCEPTIN in patients
Type: in vivo, human

syndrome of myocardial dysfunction similar to that observed with anthracyclines (Grade ¾): 0%
Compound: CC(=O)O[C@H]1C(=O)[C@@]2(C)[C@H]([C@H](OC(=O)c3ccccc3)[C@]3(O)C[C@H](OC(=O)[C@H](O)[C@@H](NC(=O)c4ccccc4)c4ccccc4)C(C)=C1C3(C)C)[C@]1(OC(C)=O)CO[C@@H]1C[C@@H]2O [T, paclitaxel]
AE(%), overall severe adverse events (median follow-up 10.5 months): 59%
